# The source made the active and inactive calls. The calls are words filed in the database; no cut-off is given here.
# What was measured:
# [1] = target: Mast/stem cell growth factor receptor Kit (Homo sapiens, UniProt P10721, D816V/V560G); assay: Inhibition of human c-KIT A loop exon 11/17 V560G/D816V double mutant using poly (Glu,Tyr) 4:1 as substrate in presence of 33P-gamma-ATP by hotspot kinase assay
# [2] = test system: Mast/stem cell growth factor receptor Kit (Homo sapiens), P10721 [V560G,N822K]; assay: Inhibition of human c-KIT A loop exon 11/17 V560G/N822K double mutant at 100 nM using poly (Glu,Tyr) 4:1 as substrate in presence of 33P-gamma-ATP by hotspot kinase assay relative to control
# [3] = Volume of distribution at steady state in ICR mouse at 2 mg/kg, iv administered as single dose measured up to 24 hrs by LC-MS/MS analysis; type: ADME, organism-based; conditions: in vivo, read-out: Vdss
# GIST48 [4] = assay: Antiproliferative activity against human GIST48 cells harboring c-KIT exon 11 homozygous primary missense V560D mutant and exon 17 heterozygous secondary D820A mutant assessed as reduction in cell viability by MTS assay; type: functional
# GIST882 [5] = assay: Antiproliferative activity against human GIST882 cells harboring c-KIT exon 13 homozygous primary K642E mutant assessed as reduction in cell viability by MTS assay; type: functional
# [6] = target: Mast/stem cell growth factor receptor Kit (Homo sapiens, UniProt P10721, D820E); assay: Inhibition of human c-KIT A loop exon 17 D820E single mutant using poly (Glu,Tyr) 4:1 as substrate in presence of 33P-gamma-ATP by hotspot kinase assay
# [7] = Antiproliferative activity against human Detroit 551 assessed as reduction in cell viability after 72 hrs by MTS assay; type: cell-based; conditions: Detroit 551 cells
# [8] = test system: Mast/stem cell growth factor receptor Kit (Homo sapiens), P10721 [D816H]; conditions: at 100 nM
# Description: Inhibition of human c-KIT A loop exon 17 D816H single mutant at 100 nM using poly (Glu,Tyr) 4:1 as substrate in presence of 33P-gamma-ATP by hotspot kinase assay relative to control
# [9] = test system: Mast/stem cell growth factor receptor Kit (Homo sapiens), P10721 [Y823D]; conditions: at 100 nM
# Description: Inhibition of human c-KIT A loop exon 17 Y823D single mutant at 100 nM using poly (Glu,Tyr) 4:1 as substrate in presence of 33P-gamma-ATP by hotspot kinase assay relative to control
# [10] = test system: Mast/stem cell growth factor receptor Kit (Homo sapiens), P10721 [UNDEFINED MUTATION]; assay: Inhibition of c-KIT V560-L576 deletion/V654A double mutant phosphorylation in human GIST430 cells at 10 to 100 nM measured after 24 to 72 hrs by Western blot analysis; type: cell-based
# Mus musculus [11] = assay: Decrease in c-KIT phosphorylation in NOD-SCID mouse xenografted with human GIST430 cells harboring c-KIT exon 11 primary in-frame V560-L576 deletion mutant and exon 13 heterozygous secondary missense V654A mutant at 80 mg/kg, po measured after 8 hrs by immunoblotting analysis relative to control; type: functional
# GIST48 [12] = assay: Antiproliferative activity against human GIST48 cells harboring c-KIT exon 11 homozygous primary missense V560D mutant and exon 17 heterozygous secondary D820A mutant assessed as reduction in cell viability by methylene blue staining based assay; type: functional
# [13] = Antiproliferative activity against human GIST62 cells assessed as reduction in cell viability by methylene blue staining based assay; type: functional
# [14] = test system: Mast/stem cell growth factor receptor Kit (Homo sapiens), P10721 [T670I]; assay: Inhibition of human c-KIT ATP binding domain exon 14 T670I single mutant at 100 nM using poly (Glu,Tyr) 4:1 as substrate in presence of 33P-gamma-ATP by hotspot kinase assay relative to control
# [15] = test system: Mast/stem cell growth factor receptor Kit (Homo sapiens), P10721 [D820E]; conditions: at 10 nM
# Description: Inhibition of human c-KIT A loop exon 17 D820E single mutant at 10 nM using poly (Glu,Tyr) 4:1 as substrate in presence of 33P-gamma-ATP by hotspot kinase assay relative to control
# [16] = target: Mast/stem cell growth factor receptor Kit (Homo sapiens, UniProt P10721, V559D/V654A); assay: Inhibition of human c-KIT […] V559D/V654A double mutant using poly (Glu,Tyr) 4:1 as substrate in presence of 33P-gamma-ATP by hotspot kinase assay
# [17] = Plasma clearance in ICR mouse at 2 mg/kg, iv administered as single dose measured up to 24 hrs by LC-MS/MS analysis; type: ADME, organism-based
# [18] = target: Mast/stem cell growth factor receptor Kit (Homo sapiens, UniProt P10721, D820Y); assay: Inhibition of human c-KIT A loop exon 17 D820Y single mutant using poly (Glu,Tyr) 4:1 as substrate in presence of 33P-gamma-ATP by hotspot kinase assay
# GIST882 [19] = assay: Antiproliferative activity against human GIST882 cells harboring c-KIT exon 13 homozygous primary K642E mutant assessed as reduction in cell viability by methylene blue staining based assay; type: functional
# [20] = test system: Mast/stem cell growth factor receptor Kit (Homo sapiens), P10721 [A829P]; assay: Inhibition of human c-KIT A loop exon 18 A829P single mutant at 10 nM using poly (Glu,Tyr) 4:1 as substrate in presence of 33P-gamma-ATP by hotspot kinase assay relative to control
# [21] = test system: Mast/stem cell growth factor receptor Kit (Homo sapiens), P10721 [V560G]; assay: Inhibition of human c-KIT JM domain exon 11 V560G single mutant at 10 nM using poly (Glu,Tyr) 4:1 as substrate in presence of 33P-gamma-ATP by hotspot kinase assay relative to control
# [22] = test system: Mast/stem cell growth factor receptor Kit (Homo sapiens), P10721 [UNDEFINED MUTATION]; assay: Inhibition of c-KIT V560-L576 deletion/V654A double mutant phosphorylation in human GIST430 cells assessed as decrease in phosphorylation of MAPK at 10 to 100 nM measured after 24 to 72 hrs by Western blot analysis; type: cell-based
# [23] = target: Mast/stem cell growth factor receptor Kit (Homo sapiens, UniProt P10721, K642E); assay: Inhibition of human c-KIT ATP binding domain exon 13 K642E single mutant using poly (Glu,Tyr) 4:1 as substrate in presence of 33P-gamma-ATP by hotspot kinase assay
# [24] = Half life in ICR mouse at 10 mg/kg, po administered as single dose measured up to 24 hrs by LC-MS/MS analysis; type: ADME, organism-based; conditions: in vivo
# [25] = target: Mast/stem cell growth factor receptor Kit (Homo sapiens, UniProt P10721, Y823D); assay: Inhibition of human c-KIT A loop exon 17 Y823D single mutant using poly (Glu,Tyr) 4:1 as substrate in presence of 33P-gamma-ATP by hotspot kinase assay
# Mus musculus [26] = assay: Decrease in c-KIT phosphorylation in NOD-SCID mouse xenografted with human GIST430 cells harboring c-KIT exon 11 primary in-frame V560-L576 deletion mutant and exon 13 heterozygous secondary missense V654A mutant at 20 mg/kg, po measured after 8 hrs by immunoblotting analysis relative to control; type: functional
# [27] = test system: Mast/stem cell growth factor receptor Kit (Homo sapiens), P10721 [D820Y]; conditions: at 10 nM
# Description: Inhibition of human c-KIT A loop exon 17 D820Y single mutant at 10 nM using poly (Glu,Tyr) 4:1 as substrate in presence of 33P-gamma-ATP by hotspot kinase assay relative to control
# [28] = test system: Mast/stem cell growth factor receptor Kit (Homo sapiens), P10721 [D816V]; conditions: at 10 nM
# Description: Inhibition of human c-KIT A loop exon 17 D816V single mutant at 10 nM using poly (Glu,Tyr) 4:1 as substrate in presence of 33P-gamma-ATP by hotspot kinase assay relative to control
# [29] = test system: Mast/stem cell growth factor receptor Kit (Homo sapiens), P10721 [D816V]; conditions: at 100 nM
# Description: Inhibition of human c-KIT A loop exon 17 D816V single mutant at 100 nM using poly (Glu,Tyr) 4:1 as substrate in presence of 33P-gamma-ATP by hotspot kinase assay relative to control
# Chain of Mast/stem cell growth factor receptor Kit (Homo sapiens), P10721 [D816V] (P10721 whole entry D816V): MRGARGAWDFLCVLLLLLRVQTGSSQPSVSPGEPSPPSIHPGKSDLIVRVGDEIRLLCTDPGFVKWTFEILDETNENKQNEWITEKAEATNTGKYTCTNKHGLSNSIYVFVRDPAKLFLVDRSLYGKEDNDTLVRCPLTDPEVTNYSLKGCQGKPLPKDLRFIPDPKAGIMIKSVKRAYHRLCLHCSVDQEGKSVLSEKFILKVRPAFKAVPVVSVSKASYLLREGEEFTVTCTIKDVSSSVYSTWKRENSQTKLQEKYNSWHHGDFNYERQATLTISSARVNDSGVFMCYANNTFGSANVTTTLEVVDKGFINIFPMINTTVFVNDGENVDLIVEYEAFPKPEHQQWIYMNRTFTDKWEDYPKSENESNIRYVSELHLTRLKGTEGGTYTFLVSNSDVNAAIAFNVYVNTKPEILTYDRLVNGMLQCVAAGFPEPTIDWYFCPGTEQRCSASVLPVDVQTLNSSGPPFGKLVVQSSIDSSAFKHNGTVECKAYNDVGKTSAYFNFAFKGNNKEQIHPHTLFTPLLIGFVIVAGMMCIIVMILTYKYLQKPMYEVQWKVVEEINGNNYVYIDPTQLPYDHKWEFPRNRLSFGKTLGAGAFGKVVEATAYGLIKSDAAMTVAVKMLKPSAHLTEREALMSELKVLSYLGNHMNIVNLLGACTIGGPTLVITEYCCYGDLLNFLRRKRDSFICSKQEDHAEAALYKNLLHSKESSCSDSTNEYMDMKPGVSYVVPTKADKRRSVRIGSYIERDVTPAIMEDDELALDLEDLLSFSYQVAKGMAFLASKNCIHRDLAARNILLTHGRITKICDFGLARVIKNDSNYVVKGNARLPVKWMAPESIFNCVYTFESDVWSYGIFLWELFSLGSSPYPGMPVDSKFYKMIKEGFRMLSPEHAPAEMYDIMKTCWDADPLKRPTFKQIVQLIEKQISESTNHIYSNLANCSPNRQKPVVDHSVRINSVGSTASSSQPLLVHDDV
# Chain of Mast/stem cell growth factor receptor Kit (Homo sapiens), P10721 [UNDEFINED MUTATION] (P10721 whole entry, looked up, stated change not applied, the tested form may be a part): as the sequence (P10721 whole entry D816V) above, with V816D counted along it
# Chain of Mast/stem cell growth factor receptor Kit (Homo sapiens, UniProt P10721, Y823D) (P10721 26-976 Y823D limits assumed): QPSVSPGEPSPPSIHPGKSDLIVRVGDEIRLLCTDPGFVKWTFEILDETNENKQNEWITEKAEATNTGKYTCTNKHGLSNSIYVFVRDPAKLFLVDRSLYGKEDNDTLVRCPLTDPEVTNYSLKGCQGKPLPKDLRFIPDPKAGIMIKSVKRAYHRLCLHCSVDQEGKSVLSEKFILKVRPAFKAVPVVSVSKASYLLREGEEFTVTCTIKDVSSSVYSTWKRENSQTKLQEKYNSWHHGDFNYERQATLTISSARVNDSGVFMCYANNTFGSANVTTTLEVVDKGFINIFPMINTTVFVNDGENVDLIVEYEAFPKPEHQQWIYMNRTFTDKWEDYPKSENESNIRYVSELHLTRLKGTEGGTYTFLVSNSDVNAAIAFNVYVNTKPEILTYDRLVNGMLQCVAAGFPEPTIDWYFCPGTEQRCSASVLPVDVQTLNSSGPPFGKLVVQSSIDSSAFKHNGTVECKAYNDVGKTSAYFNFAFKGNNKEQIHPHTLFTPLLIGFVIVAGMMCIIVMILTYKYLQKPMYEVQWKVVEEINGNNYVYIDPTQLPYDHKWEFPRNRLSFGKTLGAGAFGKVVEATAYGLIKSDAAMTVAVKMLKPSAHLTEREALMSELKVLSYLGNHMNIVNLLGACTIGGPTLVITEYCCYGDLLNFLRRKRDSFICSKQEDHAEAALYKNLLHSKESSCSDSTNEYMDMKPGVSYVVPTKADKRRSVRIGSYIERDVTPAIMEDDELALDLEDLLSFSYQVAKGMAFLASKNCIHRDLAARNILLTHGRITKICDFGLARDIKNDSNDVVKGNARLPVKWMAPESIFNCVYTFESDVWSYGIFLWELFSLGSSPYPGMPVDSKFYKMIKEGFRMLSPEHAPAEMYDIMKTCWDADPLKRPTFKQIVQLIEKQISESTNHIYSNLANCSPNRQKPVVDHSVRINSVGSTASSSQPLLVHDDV
# Chain of Mast/stem cell growth factor receptor Kit (Homo sapiens), P10721 [D816H] (P10721 whole entry D816H): as the sequence (P10721 whole entry D816V) above, with V816H counted along it
# Chain of Mast/stem cell growth factor receptor Kit (Homo sapiens), P10721 [V560G,N822K] (P10721 whole entry V560G/N822K): as the sequence (P10721 whole entry D816V) above, with V560G, V816D, N822K counted along it
# Chain of Mast/stem cell growth factor receptor Kit (Homo sapiens, UniProt P10721, V559D/V654A) (P10721 26-976 V559D/V654A limits assumed): as the sequence (P10721 26-976 Y823D limits assumed) above, with V534D, V629A, D798Y counted along it
# Chain of Mast/stem cell growth factor receptor Kit (Homo sapiens), P10721 [T670I] (P10721 whole entry T670I, the tested form may be a part): as the sequence (P10721 whole entry D816V) above, with T670I, V816D counted along it
# Chain of Mast/stem cell growth factor receptor Kit (Homo sapiens, UniProt P10721, K642E) (P10721 26-976 K642E limits assumed): as the sequence (P10721 26-976 Y823D limits assumed) above, with K617E, D798Y counted along it
# Chain of Mast/stem cell growth factor receptor Kit (Homo sapiens, UniProt P10721, D816V/V560G) (P10721 26-976 V560G/D816V limits assumed): as the sequence (P10721 26-976 Y823D limits assumed) above, with V535G, D791V, D798Y counted along it
# Chain of Mast/stem cell growth factor receptor Kit (Homo sapiens, UniProt P10721, D820Y) (P10721 26-976 D820Y limits assumed): as the sequence (P10721 26-976 Y823D limits assumed) above, with D795Y, D798Y counted along it
# Chain of Mast/stem cell growth factor receptor Kit (Homo sapiens, UniProt P10721, D820E) (P10721 26-976 D820E limits assumed): as the sequence (P10721 26-976 Y823D limits assumed) above, with D795E, D798Y counted along it
# Chain of Mast/stem cell growth factor receptor Kit (Homo sapiens), P10721 [A829P] (P10721 whole entry A829P, the tested form may be a part): as the sequence (P10721 whole entry D816V) above, with V816D, A829P counted along it
# Chain of Mast/stem cell growth factor receptor Kit (Homo sapiens), P10721 [V560G] (P10721 whole entry V560G, the tested form may be a part): as the sequence (P10721 whole entry D816V) above, with V560G, V816D counted along it
# Chain of Mast/stem cell growth factor receptor Kit (Homo sapiens), P10721 [D820Y] (P10721 whole entry D820Y): as the sequence (P10721 whole entry D816V) above, with V816D, D820Y counted along it
# Chain of Mast/stem cell growth factor receptor Kit (Homo sapiens), P10721 [D820E] (P10721 whole entry D820E): as the sequence (P10721 whole entry D816V) above, with V816D, D820E counted along it
# Chain of Mast/stem cell growth factor receptor Kit (Homo sapiens), P10721 [Y823D] (P10721 whole entry Y823D): as the sequence (P10721 whole entry D816V) above, with V816D, Y823D counted along it
smiles,measurement,setting,value
CCc1cc(NC(=O)Nc2ccc(-c3cnc(Nc4cc(N5CCN(CC)CC5)ncn4)s3)cc2)no1,IC50,[1],9.27 nM
same,inhibition,[2],99%
same,Vd,[3],7.1 L/kg
same,GI50,GIST48 [4],2 nM
same,GI50,GIST882 [5],3 nM
same,IC50,[6],0.81 nM
same,GI50 at 72 h,[7],> 10000 nM
same,inhibition,[8],96%
same,inhibition,[9],100%
same,inhibition,[10],Active
same,inhibition in vivo at 80 mg/kg,Mus musculus [11],95.9%
same,GI50,GIST48 [12],2 nM
same,GI50,[13],> 100 nM
same,inhibition,[14],83%
same,inhibition,[15],83%
same,IC50,[16],102 nM
same,clearance,[17],20.2 mL/min/kg
same,IC50,[18],0.02 nM
same,GI50,GIST882 [19],3 nM
same,inhibition,[20],90%
same,inhibition,[21],95%
same,inhibition,[22],Active
same,IC50,[23],1.37 nM
same,half-life,[24],2.8 h
same,IC50,[25],0.12 nM
same,inhibition in vivo at 20 mg/kg,Mus musculus [26],85%
same,inhibition,[27],99%
same,inhibition,[28],37%
same,inhibition,[29],73%

# Source: ChEMBL document CHEMBL4385613, “Discovery of Conformational Control Inhibitors Switching off the Activated c-KIT and Targeting a Broad Range of Clinically Relevant c-KIT Mutants” (J Med Chem, 2019)
